{"source": "patent US20130289112A1", "about": "“SALTS OF KUKOAMINE B, PREPARATION METHOD AND USE THEREOF” (priority 2010, published 2013)", "key": {"sepsis model of mice": {"tested_on": "sepsis model of mice", "experiment": "Protective effect in the sepsis model of mice (cecal ligation and puncture, CLP)", "type": "in vivo, Balb/c mice", "details": "7 days; for survival rate of mice: combination with antibiotic (ampicillin sodium-sulbactam sodium 80 mg/kg), salt 2.5 mg/kg through tail vein at 0-68 hours after surgery; for protective effect to the sepsis model of mice: salt 2.5 mg/kg tail vein combined with antibiotic, FIG. 5", "excerpt": "19.1 Methods: 120 Balb/c mice, each of 19-21 g, half of which being male and half female, are divided into six groups randomly, including control group, antibiotic group, antibiotic and kukoamine B hydrochlorate group, antibiotic and kukoamine B methanesulfonate group, antibiotic and kukoamine B p-toluenesulfonate group, and antibiotic and kukoamine B benzene sulfonate group. Each group contains 20 mice. The mice are narcotized with anesthesia machine; the vapor concentration of isoflurane is 5%; the pressure of the mixed gas is 1 MPa; anesthesia time is about 5 min. The mice model are setup by cecal ligation and puncture (CLP) comprising the following steps: the mice are maintained in supine position, and the abdomen skin is disinfected with iodophor; the skin, muscular layer and peritoneum below the midpoint of linea alba 0.3 cm are cut open with ophthalmic scissors (the length of the incisions is 0.8 CM); the muscular layer is picked up with ophthalmic forceps, and the enterocoelia is explored with ophthalmic forceps; the cecum is pulled out and ligated with No. 4 suture at 0.5 CM from the end of cecum; then, the cecum is vertically punctured with No. 12 needle, and squeezed to extrude contents; finally, the cecum is put back and the incision is stitched. Thereafter, the mice in control group are injected with 0.2 ml of sterile saline through tail vein; the mice in antibiotic group are injected with antibiotic (ampicillin sodium-sulbactam sodium) at a dosage of 80 mg/kg body weight through tail vein at 4 hours after surgery; the mice in other four groups are separately injected with kukoamine B hydrochlorate, kukoamine B methanesulfonate, kukoamine B p-toluenesulfonate and kukoamine B benzene sulfonate at a dosage of 2.5 mg/kg body weight at a time through tail vein at 0, 4, 12, 20, 28, 36, 44, 52, 60 and 68 hours after surgery."}, "[1]": {"experiment": "Affinity assay of salts of kukoamine B with lipid A (IAsys plus Affinity Sensor)", "type": "binding", "details": "1 mg in 1 ml PBS (0.01 M, pH 7.4), 5 μl added to cuvette with 45 μl PBS, immobilized lipid A, 3 min; curves in FIG. 1", "protocol": "15.1 Methods: The affinity assay is carried out according to the methods disclosed in the Chinese patent titled “Use of an active ingredient or active substance selected and isolated from traditional Chinese herbs in the preparation of drugs for treating sepsis” (Chinese patent Number ZL 200510070677.3) granted to the applicant, which mainly comprises the following steps:\n(1) Lipid A is immobilized on the reacting surfaces of non-derivative cuvettes according to the instructions of immobilization of lipid in the manufacturer's instructions of IAsys plus Affinity Sensor. Wherein, the end of hydrophobic side chain of lipid A was immobilized on cuvette, and the hydrophilic end is floating outside, which act as target site of binding reaction;\n(§1) (2) 1 mg of each of the salts, including kukoamine B hydrochlorate, kukoamine B hydrobromide, kukoamine B sulfate, kukoamine B phosphate, kukoamine B acetate, kukoamine B maleate, kukoamine B succinate, kukoamine B malate, kukoamine B lactate, kukoamine B tartrate, kukoamine B methanesulfonate, kukoamine B p-toluenesulfonate, kukoamine B glutamate, and kukoamine B aspartate, is fully dissolved by 1 ml of PBS solution (0.01 M, pH 7.4), respectively;\n(3) 5 μl of each of the solution obtained in step (2) is added into the affinity sensor's cuvettes (containing 45 μl of PBS solution) previously immobilized with lipid A to carry out the reaction, respectively;\n(4) The binding reaction is carried out for 3 min, and the binding curves are recorded;\n(5) Each of the cuvettes is washed with 50 μl of PBS solution for 3 times, and dissociation curves are recorded;\n(6) Each of the cuvettes is washed with 0.1 M HCl solution for 3 times, and the regeneration curves are recorded."}, "RAW264.7 cells [2]": {"tested_on": "RAW264.7 cells", "experiment": "Inhibition of release of inflammatory mediators (TNF-α) in RAW264.7 cells induced by CpG DNA", "type": "cell-based", "details": "CpG DNA 10 μg/ml, salt 0, 50, 100, 200 μM, 4 h, ELISA, FIG. 4", "protocol": "(§2) 18.1 Methods: RAW264.7 cells are diluted to 1×10^6/ml in DMEM culture medium, added into a 96-well cell culture plate (200 μl per well), and incubated at 37° C. in a 5% CO2 humidified incubator for 4 h, and then the supernatant is replaced with 200 μl of serum-free DMEM culture medium after cells attachment. Next, each well is added with CpG DNA (final concentration of 10 μg/ml ), and then added with one of the salts of kukoamine B (including kukoamine B malate, kukoamine B succinate, kukoamine B lactate, kukoamine B tartrate, kukoamine B methanesulfonate, kukoamine B p-toluenesulfonate, kukoamine B glutamate, kukoamine B acetate, kukoamine B hydrochlorate, and kukoamine B sulfate) to obtain the final concentration of 0, 50, 100, and 200 μM, respectively. The control group contains no CpG DNA. Then, the incubation goes on for 4 h. The supernatant is collected to measure the concentration of TNF-α according to the manufacturer's instructions of ELISA kit."}, "[3]": {"experiment": "Neutralizing test on LPS in vitro (kinetic turbidimetric limulus test)", "type": "biochemical", "details": "20 μM solution mixed with equal volume of LPS 0.25 ng/ml, 37° C. 30 min, TAL reagent; FIG. 2", "protocol": "16.1 Methods: The neutralizing test is carried out according to the manufacturer's instructions of 32 Well Kinetic Tube Reader (ATi321-06) endotoxin detector, which mainly comprises the following steps:\nas §1, with “(1) Each” for “(2) 1 mg of each”, “prepared into 20 μM” for “fully dissolved by 1 ml of PBS”, “with nonpyrogenic water,” for “(0.01 M, pH 7.4),”\n(2) 100 μl of each of the solution obtained in step (1) is separately mixed with equal volume of LPS solution (0.25 ng/ml). At the same time, the control group is established, which is a mixed solution containing 100 μl of nonpyrogenic water and equal volume of LPS solution (0.25 ng/ml). The LPS group and control group are incubated at 37° C. for 30 min. Then, 100 μl of the reaction solutions of LPS group and control group are separately added into a detector tube containing 100 μl of TAL reagents, and LPS value of each group are detected by kinetic turbidimetric limulus test according to the manufacturer's instructions of 32 Well Kinetic Tube Reader (ATi321-06) Bacterial Endotoxin Detection system. The test of each concentration is repeated three times;"}, "RAW264.7 cells [4]": {"tested_on": "RAW264.7 cells", "experiment": "Inhibition of release of inflammatory mediators (TNF-α) in RAW264.7 cells induced by LPS", "type": "cell-based", "details": "LPS 100 ng/ml, salt 0, 50, 100, 200 μM, 4 h, ELISA, FIG. 3", "protocol": "as §2, with “17.1” for “18.1”, “LPS” for “CpG DNA”, “100 ng/ml),” for “10 μg/ml ),”, “LPS.” for “CpG DNA.”"}}, "note": "Counter-ions that a name gives are not always drawn."}
{"compound": "Cc1ccc(S(=O)(=O)O)cc1.NCCCN(CCCCNCCCNC(=O)CCc1ccc(O)c(O)c1)C(=O)CCc1ccc(O)c(O)c1", "note": "[kukoamine B p-toluenesulfonate]", "values": [{"measurement": "survival rate of mice", "setting": "sepsis model of mice", "result": 20, "unit": "%"}, {"measurement": "protective effect to the sepsis model of mice", "setting": "sepsis model of mice", "result": "have protective effects to the sepsis model of mice"}, {"measurement": "binding reaction with lipid A", "setting": "[1]", "result": "can bind with lipid A"}, {"measurement": "inhibition of the release of TNF-α induced by CpG DNA", "setting": "RAW264.7 cells [2]", "result": "can inhibit the release of TNF-α"}, {"measurement": "neutralization of LPS in vitro", "setting": "[3]", "result": "can neutralize LPS in vitro"}, {"measurement": "inhibition of the release of TNF-α induced by LPS", "setting": "RAW264.7 cells [4]", "result": "can inhibit the release of TNF-α"}]}
{"compound": "kukoamine B benzene sulfonate", "values": [{"measurement": "survival rate of mice", "setting": "sepsis model of mice", "result": 30, "unit": "%"}, {"measurement": "protective effect to the sepsis model of mice", "setting": "sepsis model of mice", "result": "have protective effects to the sepsis model of mice"}]}
{"compound": "NCCCN(CCCCNCCCNC(=O)CCc1ccc(O)c(O)c1)C(=O)CCc1ccc(O)c(O)c1", "note": "[kukoamine B hydrochlorate]", "values": [{"measurement": "survival rate of mice", "setting": "sepsis model of mice", "result": 20, "unit": "%"}, {"measurement": "protective effect to the sepsis model of mice", "setting": "sepsis model of mice", "result": "have protective effects to the sepsis model of mice"}]}
{"compound": "NCCCN(CCCCNCCCNC(=O)CCc1ccc(O)c(O)c1)C(=O)CCc1ccc(O)c(O)c1", "note": "[kukoamine B hydrobromide]", "values": [{"measurement": "binding reaction with lipid A", "setting": "[1]", "result": "can bind with lipid A"}, {"measurement": "neutralization of LPS in vitro", "setting": "[3]", "result": "can neutralize LPS in vitro"}]}
{"compound": "CS(=O)(=O)O.NCCCN(CCCCNCCCNC(=O)CCc1ccc(O)c(O)c1)C(=O)CCc1ccc(O)c(O)c1", "note": "[kukoamine B methanesulfonate]", "values": [{"measurement": "survival rate of mice", "setting": "sepsis model of mice", "result": 50, "unit": "%"}, {"measurement": "comparison of protective effect among the salts", "setting": "sepsis model of mice; four salts compared", "result": "has the best effect"}, {"measurement": "protective effect to the sepsis model of mice", "setting": "sepsis model of mice", "result": "have protective effects to the sepsis model of mice"}, {"measurement": "binding reaction with lipid A", "setting": "[1]", "result": "can bind with lipid A"}, {"measurement": "inhibition of the release of TNF-α induced by CpG DNA", "setting": "RAW264.7 cells [2]", "result": "can inhibit the release of TNF-α"}, {"measurement": "neutralization of LPS in vitro", "setting": "[3]", "result": "can neutralize LPS in vitro"}, {"measurement": "inhibition of the release of TNF-α induced by LPS", "setting": "RAW264.7 cells [4]", "result": "can inhibit the release of TNF-α"}]}
{"compound": "CC(O)C(=O)O.NCCCN(CCCCNCCCNC(=O)CCc1ccc(O)c(O)c1)C(=O)CCc1ccc(O)c(O)c1", "note": "[kukoamine B lactate]", "values": [{"measurement": "binding reaction with lipid A", "setting": "[1]", "result": "can bind with lipid A"}, {"measurement": "inhibition of the release of TNF-α induced by CpG DNA", "setting": "RAW264.7 cells [2]", "result": "can inhibit the release of TNF-α"}, {"measurement": "neutralization of LPS in vitro", "setting": "[3]", "result": "can neutralize LPS in vitro"}, {"measurement": "inhibition of the release of TNF-α induced by LPS", "setting": "RAW264.7 cells [4]", "result": "can inhibit the release of TNF-α"}]}
{"compound": "CC(=O)O.NCCCN(CCCCNCCCNC(=O)CCc1ccc(O)c(O)c1)C(=O)CCc1ccc(O)c(O)c1", "note": "[kukoamine B acetate]", "values": [{"measurement": "binding reaction with lipid A", "setting": "[1]", "result": "can bind with lipid A"}, {"measurement": "inhibition of the release of TNF-α induced by CpG DNA", "setting": "RAW264.7 cells [2]", "result": "can inhibit the release of TNF-α"}, {"measurement": "neutralization of LPS in vitro", "setting": "[3]", "result": "can neutralize LPS in vitro"}, {"measurement": "inhibition of the release of TNF-α induced by LPS", "setting": "RAW264.7 cells [4]", "result": "can inhibit the release of TNF-α"}]}
{"compound": "NCCCN(CCCCNCCCNC(=O)CCc1ccc(O)c(O)c1)C(=O)CCc1ccc(O)c(O)c1", "note": "[kukoamine B malate]", "values": [{"measurement": "inhibition of the release of TNF-α induced by CpG DNA", "setting": "RAW264.7 cells [2]", "result": "can inhibit the release of TNF-α"}, {"measurement": "inhibition of the release of TNF-α induced by LPS", "setting": "RAW264.7 cells [4]", "result": "can inhibit the release of TNF-α"}]}
